Source: paper PMC7229617, “N-alkylisatin-based microtubule destabilizers bind to the colchicine site on tubulin and retain efficacy in drug resistant acute lymphoblastic leukemia cell lines with less in vitro neurotoxicity” (Cancer Cell International, 2020)

Tested on: T1, tubulin
T1 construct: gene TUBA1B; pure tubulin, alpha-beta heterodimer (colchicine site at alpha/beta interface); mixture of brain isotypes
Assay: fluorescence competition (displacement of MTC), Equigra V5.[…] fit
Format: binding
Conditions: colchicine site, competitive with MTC; 10 mM phosphate pH 7, 1 mM EDTA, 1.5 mM MgCl2, 0.1 mM GTP, 25 °C; printed exponent ambiguous (10^5 or 10^4), unreliable

Question: O=C1C(=O)N(Cc2cccc3ccccc23)c2c(Br)cc(Br)cc21 [N1M-isatin, 5,7-dibromo-N-(naphthalene-1-ylmethyl)isatin] was tested. Which “Binding affinity (M^-1) ± SEM^a” value did it give?
Answer: 1.4 ± 0.2 × 10^5(× 10^4)
